Results as given in patent publication US20230257396A1, “MACROCYCLES AND THEIR USE” (BLOSSOMHILL THERAPEUTICS, INC., priority 2020, published 2023).
Residue numbers refer to the chain shown, from its start.

Tests used:
Test in all cases: KINOMEscan kinase binding assay (Eurofins/DiscoveRx), % Ctrl
Details in all cases: 1 μM
kinases [1] = biological target: T1, kinases (Homo sapiens, UniProt P36888)
T1 construct: purchased Eurofins/DiscoveRx; host or cells: E. coli BL21-derived host (T7 phage display) for most kinases; HEK-293 for the rest
T1 sequence (P36888 27-993): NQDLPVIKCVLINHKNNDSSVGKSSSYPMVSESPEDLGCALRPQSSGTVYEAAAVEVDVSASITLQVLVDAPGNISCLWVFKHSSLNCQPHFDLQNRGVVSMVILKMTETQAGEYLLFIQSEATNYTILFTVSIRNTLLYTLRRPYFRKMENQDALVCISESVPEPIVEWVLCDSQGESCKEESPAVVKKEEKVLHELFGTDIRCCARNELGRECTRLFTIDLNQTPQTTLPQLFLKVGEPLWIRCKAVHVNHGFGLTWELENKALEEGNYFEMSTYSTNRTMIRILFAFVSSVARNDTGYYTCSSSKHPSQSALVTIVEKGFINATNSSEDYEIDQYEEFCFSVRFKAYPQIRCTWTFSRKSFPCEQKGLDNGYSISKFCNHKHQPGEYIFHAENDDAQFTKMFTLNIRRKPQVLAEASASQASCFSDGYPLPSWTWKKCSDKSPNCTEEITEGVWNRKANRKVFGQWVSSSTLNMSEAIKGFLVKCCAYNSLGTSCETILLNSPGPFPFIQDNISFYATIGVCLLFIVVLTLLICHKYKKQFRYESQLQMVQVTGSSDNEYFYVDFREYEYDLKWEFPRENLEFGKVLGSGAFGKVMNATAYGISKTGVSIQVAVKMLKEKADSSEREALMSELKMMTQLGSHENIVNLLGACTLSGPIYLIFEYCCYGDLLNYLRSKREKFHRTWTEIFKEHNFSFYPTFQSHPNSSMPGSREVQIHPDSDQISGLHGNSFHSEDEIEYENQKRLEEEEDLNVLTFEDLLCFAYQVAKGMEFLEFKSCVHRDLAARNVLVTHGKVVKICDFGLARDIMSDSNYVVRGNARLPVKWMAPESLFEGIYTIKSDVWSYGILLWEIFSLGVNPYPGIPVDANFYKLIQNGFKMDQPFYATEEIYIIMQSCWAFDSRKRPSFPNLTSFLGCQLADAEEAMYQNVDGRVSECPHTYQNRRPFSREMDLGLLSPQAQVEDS
Outline: (§1)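 Read-out is qPCR of kinase eluted from ligand-coated streptavidin beads after 1 h room-temperature competition with test compound. Values are % Ctrl at the tested concentration, lower meaning tighter binding.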

kinases [2] = biological target: T2, kinases (Homo sapiens, UniProt P16234)
T2 construct: purchased Eurofins/DiscoveRx; host or cells: E. coli BL21-derived host (T7 phage display) for most kinases; HEK-293 for the rest
T2 sequence (P16234 24-1089): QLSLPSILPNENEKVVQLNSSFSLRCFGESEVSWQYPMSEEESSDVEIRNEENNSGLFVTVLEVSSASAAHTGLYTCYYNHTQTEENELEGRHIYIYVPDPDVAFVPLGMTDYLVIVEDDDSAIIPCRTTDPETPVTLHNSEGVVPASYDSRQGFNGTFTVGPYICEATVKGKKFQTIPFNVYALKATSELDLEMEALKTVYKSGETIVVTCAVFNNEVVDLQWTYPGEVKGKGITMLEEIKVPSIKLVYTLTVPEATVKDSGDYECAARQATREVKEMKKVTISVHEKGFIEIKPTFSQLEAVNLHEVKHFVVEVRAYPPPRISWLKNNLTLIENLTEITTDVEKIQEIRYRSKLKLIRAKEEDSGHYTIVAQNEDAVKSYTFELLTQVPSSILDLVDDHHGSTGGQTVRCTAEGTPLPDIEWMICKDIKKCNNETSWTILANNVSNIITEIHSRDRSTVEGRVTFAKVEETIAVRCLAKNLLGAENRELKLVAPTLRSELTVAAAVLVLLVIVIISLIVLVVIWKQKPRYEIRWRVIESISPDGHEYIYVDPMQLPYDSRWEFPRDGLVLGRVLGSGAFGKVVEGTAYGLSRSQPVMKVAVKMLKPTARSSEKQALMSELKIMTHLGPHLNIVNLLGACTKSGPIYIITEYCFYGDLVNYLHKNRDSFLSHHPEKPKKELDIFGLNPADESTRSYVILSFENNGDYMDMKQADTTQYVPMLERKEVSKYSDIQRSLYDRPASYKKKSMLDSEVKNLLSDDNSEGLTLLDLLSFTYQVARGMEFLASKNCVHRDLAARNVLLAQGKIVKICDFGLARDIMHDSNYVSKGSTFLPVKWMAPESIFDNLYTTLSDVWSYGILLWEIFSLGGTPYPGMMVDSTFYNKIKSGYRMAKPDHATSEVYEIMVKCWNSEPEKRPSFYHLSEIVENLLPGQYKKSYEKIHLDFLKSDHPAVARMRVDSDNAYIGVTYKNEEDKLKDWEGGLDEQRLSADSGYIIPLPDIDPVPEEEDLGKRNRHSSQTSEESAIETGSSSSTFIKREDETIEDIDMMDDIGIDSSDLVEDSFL
Outline: as §1

kinases [3] = biological target: T3, kinases (Homo sapiens, UniProt P07949, M918T)
T3 construct: purchased Eurofins/DiscoveRx; host or cells: E. coli BL21-derived host (T7 phage display) for most kinases; HEK-293 for the rest
T3 sequence (P07949 29-1114 M918T): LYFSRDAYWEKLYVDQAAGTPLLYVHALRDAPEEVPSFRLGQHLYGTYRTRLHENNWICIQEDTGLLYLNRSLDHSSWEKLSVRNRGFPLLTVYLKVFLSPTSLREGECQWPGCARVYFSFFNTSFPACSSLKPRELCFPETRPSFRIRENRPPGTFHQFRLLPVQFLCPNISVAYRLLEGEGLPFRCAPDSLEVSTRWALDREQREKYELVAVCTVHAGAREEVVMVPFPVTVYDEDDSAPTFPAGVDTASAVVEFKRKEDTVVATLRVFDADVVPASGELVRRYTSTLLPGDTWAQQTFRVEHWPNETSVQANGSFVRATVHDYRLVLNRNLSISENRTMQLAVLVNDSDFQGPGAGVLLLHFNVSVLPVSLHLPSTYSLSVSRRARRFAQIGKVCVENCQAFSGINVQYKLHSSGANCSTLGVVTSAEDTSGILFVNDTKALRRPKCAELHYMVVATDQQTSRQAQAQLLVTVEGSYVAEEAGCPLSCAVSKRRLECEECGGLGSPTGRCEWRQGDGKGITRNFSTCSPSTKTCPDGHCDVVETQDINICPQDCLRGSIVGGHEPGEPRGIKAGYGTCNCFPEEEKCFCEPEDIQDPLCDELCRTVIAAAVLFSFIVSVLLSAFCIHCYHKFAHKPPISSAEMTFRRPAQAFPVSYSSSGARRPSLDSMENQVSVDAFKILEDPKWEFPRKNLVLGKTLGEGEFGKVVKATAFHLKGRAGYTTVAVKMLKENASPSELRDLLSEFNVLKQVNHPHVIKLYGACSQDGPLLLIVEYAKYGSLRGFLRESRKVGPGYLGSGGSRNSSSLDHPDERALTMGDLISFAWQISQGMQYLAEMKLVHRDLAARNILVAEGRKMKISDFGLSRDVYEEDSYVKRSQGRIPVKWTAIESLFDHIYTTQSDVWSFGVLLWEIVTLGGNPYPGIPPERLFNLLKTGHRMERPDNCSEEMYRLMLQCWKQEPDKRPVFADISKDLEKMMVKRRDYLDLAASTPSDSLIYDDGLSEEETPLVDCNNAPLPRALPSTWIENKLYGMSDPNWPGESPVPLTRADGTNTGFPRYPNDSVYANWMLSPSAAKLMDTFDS
Outline: as §1

kinases [4] = biological target: T4, kinases (Homo sapiens, UniProt P10721)
T4 construct: purchased Eurofins/DiscoveRx; host or cells: E. coli BL21-derived host (T7 phage display) for most kinases; HEK-293 for the rest
T4 sequence (P10721 26-976): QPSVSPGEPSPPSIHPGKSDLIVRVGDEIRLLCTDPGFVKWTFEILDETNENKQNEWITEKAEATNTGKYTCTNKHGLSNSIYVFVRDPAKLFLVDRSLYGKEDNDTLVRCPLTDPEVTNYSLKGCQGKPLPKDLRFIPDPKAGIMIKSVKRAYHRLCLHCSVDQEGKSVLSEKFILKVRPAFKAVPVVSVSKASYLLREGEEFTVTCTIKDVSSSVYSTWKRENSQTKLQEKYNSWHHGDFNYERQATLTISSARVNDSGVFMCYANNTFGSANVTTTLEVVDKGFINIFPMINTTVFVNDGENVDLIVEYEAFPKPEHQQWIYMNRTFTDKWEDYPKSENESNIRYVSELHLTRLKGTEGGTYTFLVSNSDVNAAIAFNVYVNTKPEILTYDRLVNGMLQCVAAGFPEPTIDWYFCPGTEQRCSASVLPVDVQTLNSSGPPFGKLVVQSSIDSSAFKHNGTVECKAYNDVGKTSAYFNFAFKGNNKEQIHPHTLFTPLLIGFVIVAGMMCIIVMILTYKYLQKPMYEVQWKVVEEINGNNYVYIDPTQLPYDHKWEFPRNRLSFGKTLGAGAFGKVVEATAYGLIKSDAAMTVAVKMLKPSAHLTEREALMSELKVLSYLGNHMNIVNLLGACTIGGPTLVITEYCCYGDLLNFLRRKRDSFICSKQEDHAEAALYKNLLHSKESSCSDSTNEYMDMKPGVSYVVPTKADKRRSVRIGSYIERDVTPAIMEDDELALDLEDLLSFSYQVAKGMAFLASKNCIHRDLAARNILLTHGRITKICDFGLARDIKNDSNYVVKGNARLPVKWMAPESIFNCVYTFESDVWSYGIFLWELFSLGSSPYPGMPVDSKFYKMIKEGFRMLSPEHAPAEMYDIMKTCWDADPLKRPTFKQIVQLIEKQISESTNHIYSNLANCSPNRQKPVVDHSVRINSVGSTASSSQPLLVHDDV
Outline: as §1

kinases [5] = biological target: T5, kinases (Homo sapiens, UniProt P10721, L576P)
T5 construct: purchased Eurofins/DiscoveRx; host or cells: E. coli BL21-derived host (T7 phage display) for most kinases; HEK-293 for the rest
T5 sequence (P10721 26-976 L576P): as the sequence (P10721 26-976) above, with L551P counted along it
Outline: as §1

kinases [6] = biological target: T6, kinases (Homo sapiens, UniProt P36888, N841I)
T6 construct: purchased Eurofins/DiscoveRx; host or cells: E. coli BL21-derived host (T7 phage display) for most kinases; HEK-293 for the rest
T6 sequence (P36888 27-993 N841I): T1 sequence (P36888 27-993) with N815I
Outline: as §1

| SMILES | % Ctrl, FLT3 (kinases [1]; FLT3) | % Ctrl, FLT3-autoinhibited (kinases [1]; FLT3-autoinhibited) | % Ctrl, PDGFRA (kinases [2]; PDGFRA) | % Ctrl, RET(M918T) (kinases [3]; RET(M918T)) | % Ctrl, KIT (kinases [4]; KIT) | % Ctrl, KIT-autoinhibited (kinases [4]; KIT-autoinhibited) | % Ctrl, KIT(L576P) (kinases [5]; KIT(L576P)) | % Ctrl, FLT3(N841I) (kinases [6]; FLT3(N841I)) | % Ctrl, FLT3-autoinhibited (kinases [1]; target FLT3-autoinhibited) | % Ctrl, FLT3 (kinases [1]; target FLT3) | % Ctrl, PDGFRA (kinases [2]; target PDGFRA) | % Ctrl, RET(M918T) (kinases [3]; target RET(M918T)) | % Ctrl, KIT-autoinhibited (kinases [4]; target KIT-autoinhibited) | % Ctrl, KIT (kinases [4]; target KIT) | % Ctrl, KIT(L576P) (kinases [5]; target KIT(L576P)) | % Ctrl, FLT3(N841I) (kinases [6]; target FLT3(N841I)) |
| --- | --- | --- | --- | --- | --- | --- | --- | --- | --- | --- | --- | --- | --- | --- | --- | --- |
| Cc1cc2c([nH]1)/C=C1\C(=O)Nc3cnc(cc31)-c1cn[nH]c1CNCCN(C)C2=O [Ex. 55, [3a(4)Z]-6,9-dimethyl-9,10,11,12,13,14-hexahydro-17,1-(azenometheno)pyrazolo[4,3-m]dipyrrolo[3,2-f:3′,4′-i][1,4]diazacyclopentadecine-3,8(2,5H)-dione] |  |  |  |  |  |  |  |  | 10 % Ctrl | 11 % Ctrl | 50 % Ctrl | 0.6 % Ctrl | 39 % Ctrl | 74 % Ctrl | 17 % Ctrl | 0 % Ctrl |
| Cc1cc2c([nH]1)/C=C1\C(=O)Nc3ccc(cc31)O[C@@H](C)COCCN(C)C2=O [Ex. 92, [10S,16a(17)Z]-2,5,10-trimethyl-6,7,9,10-tetrahydro-1H-12,14-(ethanediylidene)dipyrrolo[3,2-i:3′,4′-l][1,4,7]dioxazacyclopentadecine-4,16(5H,15H)-dione] | 77 % Ctrl | 96 % Ctrl | 95 % Ctrl | 59 % Ctrl | 91 % Ctrl | 100 % Ctrl | 87 % Ctrl | 20 % Ctrl |  |  |  |  |  |  |  |  |
| Cc1cc2c([nH]1)/C=C1\C(=O)Nc3ccc(cc31)-c1cnn(C)c1COCCN(C)C2=O [Ex. 124, [3a(4)Z]-6,9,14-trimethyl-10,11,13,14-tetrahydro-2H-1,17-(ethanediylidene)pyrazolo[4,3-m]dipyrrolo[3,2-f:3′,4′-i][1,4]oxazacyclopentadecine-3,8(5H,9H)-dione] | 0.15 % Ctrl | 0.35 % Ctrl | 7.9 % Ctrl | 0 % Ctrl | 45 % Ctrl | 93 % Ctrl | 4.2 % Ctrl | 0 % Ctrl |  |  |  |  |  |  |  |  |
| Cc1cc2c([nH]1)/C=C1\C(=O)Nc3ccc(cc31)-c1cnn(C)c1CN(C)CCN(C)C2=O [Ex. 126, [3a(4)Z]-6,9,12,14-tetramethyl-9,10,11,12,13,14-hexahydro-1,17-(ethanediylidene)pyrazolo[4,3-m]dipyrrolo[3,2-f:3′,4′-i][1,4]diazacyclopentadecine-3,8(2H,5H)-dione] | 0.2 % Ctrl | 0.25 % Ctrl | 1.2 % Ctrl | 0 % Ctrl | 6.3 % Ctrl | 84 % Ctrl | 0 % Ctrl | 0 % Ctrl |  |  |  |  |  |  |  |  |
| Cc1cc2c([nH]1)/C=C1\C(=O)Nc3ccc(cc31)-c1c(noc1C)COCCN(C)C2=O [Ex. 128, [3a(4)Z]-6,9,16-trimethyl-1,11-dihydro-2H,13H-1,17-(ethanediylidene)[1,4]oxazolo[4,3-m]dipyrrolo[3,2-f:3′,4′-i][1,4]oxazacyclopentadecine-3,8(5H,9H)-dione] | 66 % Ctrl | 89 % Ctrl | 89 % Ctrl | 93 % Ctrl | 98 % Ctrl | 97 % Ctrl | 100 % Ctrl | 36 % Ctrl |  |  |  |  |  |  |  |  |

Results, then the compound that gave them:

| % Ctrl, FLT3 (kinases [1]; FLT3) | % Ctrl, FLT3-autoinhibited (kinases [1]; FLT3-autoinhibited) | % Ctrl, PDGFRA (kinases [2]; PDGFRA) | % Ctrl, RET(M918T) (kinases [3]; RET(M918T)) | % Ctrl, KIT (kinases [4]; KIT) | % Ctrl, KIT-autoinhibited (kinases [4]; KIT-autoinhibited) | % Ctrl, KIT(L576P) (kinases [5]; KIT(L576P)) | % Ctrl, FLT3(N841I) (kinases [6]; FLT3(N841I)) | % Ctrl, FLT3-autoinhibited (kinases [1]; target FLT3-autoinhibited) | % Ctrl, FLT3 (kinases [1]; target FLT3) | % Ctrl, PDGFRA (kinases [2]; target PDGFRA) | % Ctrl, RET(M918T) (kinases [3]; target RET(M918T)) | % Ctrl, KIT-autoinhibited (kinases [4]; target KIT-autoinhibited) | % Ctrl, KIT (kinases [4]; target KIT) | % Ctrl, KIT(L576P) (kinases [5]; target KIT(L576P)) | % Ctrl, FLT3(N841I) (kinases [6]; target FLT3(N841I)) | SMILES |
| --- | --- | --- | --- | --- | --- | --- | --- | --- | --- | --- | --- | --- | --- | --- | --- | --- |
| 5.5 % Ctrl | 50 % Ctrl | 19 % Ctrl | 45 % Ctrl | 58 % Ctrl | 78 % Ctrl | 40 % Ctrl | 0 % Ctrl |  |  |  |  |  |  |  |  | Cc1cc2c([nH]1)/C=C1\C(=O)Nc3ccc(cc31)-c1ccnn1CCOCCN(C)C2=O [Ex. 41, [19a(20)Z]-2,5-dimethyl-6,7,9,10-tetrahydro-1H-15,17-(ethanediylidene)pyrazolo[1,5-d]dipyrrolo[3,4-h:2′,3′-k][1,4,14]oxadiazacyclohexadecine-4,19(5H,18H)-dione] |
| 99 % Ctrl | 77 % Ctrl | 80 % Ctrl | 95 % Ctrl | 100 % Ctrl | 81 % Ctrl | 100 % Ctrl | 98 % Ctrl |  |  |  |  |  |  |  |  | Cc1cc2c([nH]1)/C=C1\C(=O)Nc3ccc(cc31)-c1ccnn1CCNCCNC2=O [Ex. 43, [19a(20)Z]-2-methyl-5,6,7,8,9,10-hexahydro-15,17-(ethanediylidene)pyrazolo[1,5-g]dipyrrolo[3,4-k:2′,3′-n][1,4,7]triazacyclohexadecine-4,19(1H,18H)-dione] |
| 0.45 % Ctrl | 0.15 % Ctrl | 7.7 % Ctrl | 0 % Ctrl | 42 % Ctrl | 95 % Ctrl | 5.9 % Ctrl | 0 % Ctrl |  |  |  |  |  |  |  |  | Cc1cc2c([nH]1)/C=C1\C(=O)Nc3ccc(cc31)-c1cnn(C)c1CNCCN(C)C2=O [Ex. 125, [3a(4)Z]-6,9,14-trimethyl-9,10,11,12,13,14-hexahydro-1,17-(ethanediylidene)pyrazolo[4,3-m]dipyrrolo[3,2-f:3′,4′-i][1,4]diazacyclopentadecine-3,8(2H,5H)-dione] |
| 4.6 % Ctrl | 9.9 % Ctrl | 47 % Ctrl | 2.1 % Ctrl | 89 % Ctrl | 80 % Ctrl | 73 % Ctrl | 0.35 % Ctrl |  |  |  |  |  |  |  |  | Cc1cc2c([nH]1)/C=C1\C(=O)Nc3ccc(cc31)-c1c(C)n[nH]c1CNCCN(C)C2=O [Ex. 127, [3a(4)Z]-6,9,16-trimethyl-9,10,11,12,13,14-hexahydro-1,17-(ethanediylidene)pyrazolo[4,3-m]dipyrrolo[3,2-f:3′,4′-i][1,4]diazacyclopentadecine-3,8(2H,5H)-dione] |
